Reference: the supplement of paper PMC10721915
± gives the standard deviation of the averaged measurements.

Compound: COc1ccc([C@@H](O)c2cc(-c3ncnc4cc(N5CCOCC5)ccc34)c(F)cc2Cl)nn1 [peposertib]
Experiment: relative cell growth vs untreated control (GI, NCI-DTP normalisation with time-zero) (fraction of control growth); higher = more growth / less inhibition
Settings: treatment time: 120 h
Experimental: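 Cancer cell lines were treated with peposertib (DNA-PK inhibitor) combined with gamma ionizing radiation (0, 2, 3 or 6 Gy) for 120 h, starting 48 h after seeding. Read-out was sulforhodamine B total-protein staining, normalised to untreated control and time-zero wells (NCI-DTP GI convention).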

[1] = peposertib concentration 0.00488 µM, gamma irradiation dose (Gy): 0
[2] = peposertib concentration 0.0195 µM, gamma irradiation dose (Gy): 0
[3] = peposertib concentration 0.0781 µM, gamma irradiation dose (Gy): 0
[4] = peposertib concentration 0.313 µM, gamma irradiation dose (Gy): 0
[5] = peposertib concentration 1.25 µM, gamma irradiation dose (Gy): 0
[6] = peposertib concentration 5 µM, gamma irradiation dose (Gy): 0
[7] = peposertib concentration 0.00488 µM, gamma irradiation dose (Gy): 3
[8] = peposertib concentration 0.0195 µM, gamma irradiation dose (Gy): 3
[9] = peposertib concentration 0.0781 µM, gamma irradiation dose (Gy): 3
[10] = peposertib concentration 0.313 µM, gamma irradiation dose (Gy): 3
[11] = peposertib concentration 1.25 µM, gamma irradiation dose (Gy): 3
[12] = peposertib concentration 5 µM, gamma irradiation dose (Gy): 3

Test System | relative cell growth [1] | relative cell growth [2] | relative cell growth [3] | relative cell growth [4] | relative cell growth [5] | relative cell growth [6] | relative cell growth [7] | relative cell growth [8] | relative cell growth [9] | relative cell growth [10] | relative cell growth [11] | relative cell growth [12]
MDAMB436 | 1.04 | 0.987 | 0.992 | 0.795 | 0.541 | 0.188 | – | – | – | – | – | –
HCT15 | 0.998 ± 0.048 | 0.896 ± 0.056 | 1.002 ± 0.0063 | 0.964 ± 0.028 | 0.792 ± 0.062 | 0.301 ± 0.074 | 0.555 | 0.482 | 0.298 | 0.147 | 0.0634 | 0.0278
SKMEL5 | 1.07 | 1.07 | 1.11 | 1.08 | 0.72 | 0.202 | – | – | – | – | – | –
HT1080 | 1.08 | 1.09 | 1.08 | 1.11 | 1.11 | 1 | – | – | – | – | – | –
NCIH358M | 1.004 ± 0.01 | 0.975 ± 0.03 | 0.963 ± 0.03 | 0.869 ± 0.1 | 0.695 ± 0.16 | 0.345 ± 0.078 | 0.299 | 0.27 | 0.182 | 0.181 | 0.108 | 0.0702
A2780 | 1.03 | 1.04 | 1.02 | 0.999 | 0.858 | 0.156 | – | – | – | – | – | –
SUDHL10 | 1.01 | 1.01 | 1.02 | 1.12 | 1.12 | 0.345 | – | – | – | – | – | –
L363 | 0.996 | 1 | 0.98 | 0.813 | 0.39 | 0.0471 | – | – | – | – | – | –
JIMT1 | 0.999 | 1.01 | 0.999 | 0.906 | 0.561 | 0.232 | – | – | – | – | – | –
PLCPRF5 | 1.01 | 0.969 | 0.974 | 0.898 | 0.807 | 0.586 | – | – | – | – | – | –
SKBR3 | 0.938 | 1.03 | 1.03 | 0.89 | 0.523 | 0.0447 | – | – | – | – | – | –
NCIH460 | 1.05 ± 0.025 | 1.04 ± 0.02 | 1.02 ± 0.025 | 0.934 ± 0.16 | 0.661 ± 0.37 | 0.177 ± 0.11 | 0.302 | 0.384 | 0.181 | 0.0919 | 0.044 | 0.0283
EFO21 | 1.05 | 1.04 | 0.909 | 0.667 | 0.352 | 0.141 | – | – | – | – | – | –
WSUNHL | 1.07 | 1.08 | 0.713 | 0.513 | 0.0836 | -0.0127 | – | – | – | – | – | –
RDES | 0.935 | 0.961 | 0.971 | 0.785 | 0.57 | 0.24 | – | – | – | – | – | –
IGROV1 | 1.02 | 1.02 | 0.965 | 0.789 | 0.22 | -0.0182 | – | – | – | – | – | –
ASPC1 | 1.1 | 0.966 | 1 | 0.891 | 0.67 | 0.22 | – | – | – | – | – | –
A204 | 1.06 | 1.01 | 0.892 | 0.616 | 0.298 | 0.0711 | – | – | – | – | – | –
OVCAR3 | 0.907 | 0.952 | 0.919 | 0.739 | 0.372 | 0.0464 | – | – | – | – | – | –
SKLMS1 | 0.903 | 0.977 | 0.896 | 0.593 | 0.435 | 0.169 | – | – | – | – | – | –

Test System | relative cell growth [1] | relative cell growth [2] | relative cell growth [3] | relative cell growth [4] | relative cell growth [5] | relative cell growth [6] | relative cell growth [7] | relative cell growth [8] | relative cell growth [9] | relative cell growth [10] | relative cell growth [11] | relative cell growth [12]
MDAMB468 | 1.04 | 0.969 | 0.942 | 0.794 | 0.556 | 0.222 | – | – | – | – | – | –
RAMOS | 1.06 | 0.987 | 0.927 | 0.736 | 0.377 | 0.129 | – | – | – | – | – | –
MINO | 0.833 | 0.904 | 0.937 | 0.73 | 0.326 | 0.0668 | – | – | – | – | – | –
HEPG2 | 0.956 | 0.977 | 0.977 | 0.91 | 0.603 | 0.211 | – | – | – | – | – | –
SKMEL28 | 1 | 1.02 | 0.902 | 0.746 | 0.648 | 0.477 | – | – | – | – | – | –
THP1 | 0.988 | 0.968 | 0.887 | 0.721 | 0.436 | 0.148 | – | – | – | – | – | –
CACO2 | 0.994 ± 0.066 | 0.959 ± 0.018 | 0.92 ± 0.033 | 0.85 ± 0.0095 | 0.644 ± 0.03 | 0.238 ± 0.01 | 0.722 | 0.713 | 0.595 | 0.322 | 0.195 | 0.098
PANC1 | 0.969 | 0.974 | 0.956 | 0.92 | 0.741 | 0.411 | – | – | – | – | – | –
MHHES1 | 0.994 | 0.99 | 0.974 | 0.915 | 0.776 | 0.458 | – | – | – | – | – | –
J82 | 1.02 | 1.03 | 0.991 | 0.876 | 0.64 | 0.377 | – | – | – | – | – | –
BXPC3 | 0.935 | 0.946 | 0.903 | 0.789 | 0.437 | 0.137 | – | – | – | – | – | –
NCIH82 | 0.982 ± 0.048 | 1.016 ± 0.0085 | 0.988 ± 0.034 | 0.892 ± 0.15 | 0.718 ± 0.24 | 0.422 ± 0.055 | 0.219 | 0.187 | 0.11 | 0.0372 | 0.0097 | 0.000329
DLD1 | 1.01 ± 0.015 | 0.997 ± 0.014 | 1 ± 0.042 | 0.959 ± 0.033 | 0.842 ± 0.09 | 0.445 ± 0.091 | 0.55 | 0.518 | 0.389 | 0.137 | 0.0235 | 0.00897
HL60 | 0.998 | 0.975 | 0.929 | 0.808 | 0.526 | 0.238 | – | – | – | – | – | –
SF295 | 1.03 | 1.01 | 0.992 | 0.945 | 0.54 | 0.209 | – | – | – | – | – | –
KASUMI1 | 0.984 | 0.968 | 0.859 | 0.577 | 0.181 | -0.0751 | – | – | – | – | – | –
A549 | 1.031 ± 0.01 | 1.02 ± 0.014 | 0.966 ± 0.019 | 0.782 ± 0.071 | 0.442 ± 0.079 | 0.113 ± 0.013 | 0.766 | 0.613 | 0.256 | 0.0863 | 0.0255 | 0.0147
SF268 | 1.01 | 0.994 | 0.943 | 0.867 | 0.747 | 0.516 | – | – | – | – | – | –
MV411 | 0.937 | 0.935 | 0.924 | 0.793 | 0.383 | 0.0939 | – | – | – | – | – | –
